{
  "source": "patent US7288258B2",
  "about": "“Polyepitopic protein fragments of the E6 and E7 proteins of HPV, their production and their use particularly in vaccination” (Peptide Immune Ligands, priority 1999, dated 2007)",
  "data": [
    {"system": "HLA molecules of the B35 type", "assay": "association of peptide with HLA molecules and stability of the complex", "format": "binding, human", "details": "stable complex: peptide remains bound for at least about 3 hours at 37° C.", "text": "(§1) The different epitopes of the polyepitopic region of the predetermined protein, and delimiting the epitopic protein fragments, are preferably selected from the peptides; • binding to a predetermined molecule of MCH, particularly to a molecule of the predetermined HLA type, and this from concentrations of about 10^−6 M to about 10^−10 M in peptide for concentrations of about 10^−7 M of HLA molecules, particularly under the conditions described hereafter, • and forming a stable complex with said MCH molecule, namely particularly a complex in which said peptide remains bound to said molecule for at least about 3 hours at 37° C.\n(§2) By way of illustration, the above-mentioned epitopes of the invention are selected from among the peptides adapted: • on the one hand of associating with the molecules of MCH, particularly by using the following method: • incubation (particularly for about 2 hours at 25° C., then about 15 hours at 4° C.) of the peptide in the presence of MCH molecules, from the lysis of human or animal cells, or purified particularly by affinity chromatography from human or animal cell lines, • trapping complexes formed during the preceding step on a solid support covered with a first antibody, particularly monoclonal, recognizing specifically the CMH molecules in their configuration dependent on their connection to said peptide, • addition to the preceding solid support of a second marked antibody, particularly by coupling to a radioactive, enzymatic or fluorescent marker, said marked antibody recognizing specifically either the long chains of MCH in their configuration dependent on their connection to the peptide, or the short chain of MCH or the β2-microglobulin binding specifically to the different long chains of the MCH in their above-mentioned configuration, • detection, after rinsing of the solid support, of the possible presence of the second marked antibody remaining fixed on the solid support, signifying an association effect between the molecules of MCH and the peptide studied, • and, on the other hand, forming a complex with said MCH molecules, whose stability can be evaluated by the use of a method of following according to time the connection established between the peptide and the MCH molecules, this method being preferably carried out according to a protocol identical to the preceding method, but in which the incubation step of the peptide in the presence of MCH molecules on the solid support covered with said first antibody, is preceded by a preliminary step of eliminating the free peptide adapted that may be present in the reaction medium, particularly by washing the solid support, said incubation step being carried out (preferably at a temperature of 37° C.) for variable times of 1 hours, 3 hours, 5 hours, 24 hours and 48 hours.\n(§3) As mentioned above, the epitopes of the invention should be recognized by the T cells in association with the MCH molecules and associate with these latter, particularly in the framework of the practice of the recognition test described above. This association can be weak (detectable at concentrations of peptide analogs of the order of 10^−4 to 10^−5 M), intermediate (detectable at concentrations of peptide analogs of the order of 10^−6 to 10^−7 M), or strong (detectable at concentrations of peptide analogs of the order of 10^−8 to 10^−9 M). The peptides associated with the MCH molecules in the scope of the present invention are preferably adapted to bond during at least about 3 hours, to said MCH molecules.", "values": [
      {"sequence": "ALNKMFCQL (listed as Homo sapiens)", "binding stably to HLA molecules of the B35 type": "binding stably"},
      {"sequence": "GSYGFRLGFL (listed as Homo sapiens)", "binding stably to HLA molecules of the B35 type": "binding stably"},
      {"sequence": "PPGTRVRAM (listed as Homo sapiens)", "binding stably to HLA molecules of the B35 type": "binding stably"},
      {"sequence": "TPTLHEYML (Human Papillomavirus)", "binding stably to HLA molecules of the B35 type": "binding stably"}
    ]},
    {"system": "HLA molecules of the B27 type", "assay": "association of peptide with HLA molecules and stability of the complex", "format": "binding, human", "details": "stable complex: peptide remains bound for at least about 3 hours at 37° C.", "text": "as §1, §2, §3", "values": [
      {"sequence": "FRHSVVVPY (listed as Homo sapiens)", "binding stably to HLA molecules of the B27 type": "binding stably"},
      {"sequence": "GRNSFEVR (listed as Homo sapiens)", "binding stably to HLA molecules of the B27 type": "binding stably"},
      {"sequence": "IRVEGNLRVEY (listed as Homo sapiens)", "binding stably to HLA molecules of the B27 type": "binding stably"},
      {"sequence": "KKQRFHNIR (Human Papillomavirus)", "binding stably to HLA molecules of the B27 type": "binding stably"},
      {"sequence": "LRVEYLDDR (listed as Homo sapiens)", "binding stably to HLA molecules of the B27 type": "binding stably"},
      {"sequence": "QRFHNIRGRW (Human Papillomavirus)", "binding stably to HLA molecules of the B27 type": "binding stably"}
    ]},
    {"system": "HLA molecules of the A2 type", "assay": "association of peptide with HLA molecules and stability of the complex", "format": "binding, human", "details": "stable complex: peptide remains bound for at least about 3 hours at 37° C.", "text": "as §1, §2, §3", "values": [
      {"sequence": "GLAPPQHLIRV", "binding stably to HLA molecules of the A2 type": "binding stably"},
      {"sequence": "ITLEDSSGN (listed as Homo sapiens)", "binding stably to HLA molecules of the A2 type": "binding stably"},
      {"sequence": "KLPQLCTEL", "binding stably to HLA molecules of the A2 type": "binding stably"},
      {"sequence": "LLGRNSFEV", "binding stably to HLA molecules of the A2 type": "binding stably"},
      {"sequence": "LLMGTLGIV", "binding stably to HLA molecules of the A2 type": "binding stably"},
      {"sequence": "QLCTELQTTI (Human Papillomavirus)", "binding stably to HLA molecules of the A2 type": "binding stably"},
      {"sequence": "RVEGNLRVEY (listed as Homo sapiens)", "binding stably to HLA molecules of the A2 type": "binding stably"},
      {"sequence": "STPPPGTRV (listed as Homo sapiens)", "binding stably to HLA molecules of the A2 type": "binding stably"},
      {"sequence": "TIHDIILRCV", "binding stably to HLA molecules of the A2 type": "binding stably"},
      {"sequence": "TLGIVCPI (Human Papillomavirus)", "binding stably to HLA molecules of the A2 type": "binding stably"},
      {"sequence": "YMLDLQPETT", "binding stably to HLA molecules of the A2 type": "binding stably"}
    ]},
    {"system": "HLA molecules of the B44 type", "assay": "association of peptide with HLA molecules and stability of the complex", "format": "binding, human", "details": "stable complex: peptide remains bound for at least about 3 hours at 37° C.", "text": "as §1, §2, §3", "values": [
      {"sequence": "GDTPTLHEY (Human Papillomavirus)", "binding stably to HLA molecules of the B44 type": "binding stably"},
      {"sequence": "LEDSSGNLL (listed as Homo sapiens)", "binding stably to HLA molecules of the B44 type": "binding stably"},
      {"sequence": "PEEKQRHL (Human Papillomavirus)", "binding stably to HLA molecules of the B44 type": "binding stably"},
      {"sequence": "SDCTTIHYNY (listed as Homo sapiens)", "binding stably to HLA molecules of the B44 type": "binding stably"},
      {"sequence": "VEGNLRVEY (listed as Homo sapiens)", "binding stably to HLA molecules of the B44 type": "binding stably"},
      {"sequence": "VEYLDDRNTF (listed as Homo sapiens)", "binding stably to HLA molecules of the B44 type": "binding stably"}
    ]},
    {"system": "HLA molecules of the A24 type", "assay": "association of peptide with HLA molecules and stability of the complex", "format": "binding, human", "details": "stable complex: peptide remains bound for at least about 3 hours at 37° C.", "text": "as §1, §2, §3", "values": [
      {"sequence": "CYSLYGTTL (Human Papillomavirus)", "binding stably to HLA molecules of the A24 type": "binding stably"},
      {"sequence": "EYLDDRNTF", "binding stably to HLA molecules of the A24 type": "binding stably"},
      {"sequence": "IYKQSQHM (listed as Homo sapiens)", "binding stably to HLA molecules of the A24 type": "binding stably"},
      {"sequence": "NYMCNSSCM (listed as Homo sapiens)", "binding stably to HLA molecules of the A24 type": "binding stably"},
      {"sequence": "RFHNIRGRW (Human Papillomavirus)", "binding stably to HLA molecules of the A24 type": "binding stably"},
      {"sequence": "SYGFRLGFL (listed as Homo sapiens)", "binding stably to HLA molecules of the A24 type": "binding stably"},
      {"sequence": "TFRHSVVV (listed as Homo sapiens)", "binding stably to HLA molecules of the A24 type": "binding stably"},
      {"sequence": "TYQGSYGFRL", "binding stably to HLA molecules of the A24 type": "binding stably"},
      {"sequence": "TYSPALNKMF", "binding stably to HLA molecules of the A24 type": "binding stably"},
      {"sequence": "VYDFAFRDL (Human Papillomavirus)", "binding stably to HLA molecules of the A24 type": "binding stably"}
    ]}
  ]
}
